Data reported in patent US9855257B2, “4-alkynyl imidazole derivative and medicine comprising same as active ingredient” (KAKEN PHARMACEUTICAL CO., LTD., priority 2013, dated 2018).

Assays:
rat EP4 receptor = target: T1, rat EP4 receptor (Rattus norvegicus, UniProt P43114); assay: Rat EP4 receptor antagonistic action by the reporter assay method; assay type: cell-based; details: COS-7 cells expressing rat EP4 receptor, CRE-LUC reporter, PGE2 1×10^−8 mol/L; geometric mean of three cases; read-out: Intensity of EP4 Receptor Antagonistic Activity IC50
T1 construct: its translated region was integrated into the expression vector pShooter (Invitrogen); expressed in transfected cells; host or cells: COS-7 cells (Cercopithecus aethiops kidney), transiently co-transfected with ratEP4-pShooter and a CRE-LUC reporter vector
Procedure: Test for Evaluating the Rat EP4 Receptor Antagonistic Action by the Reporter Assay Method
The first step was the cloning of the rat EP4 receptor. Total RNA was prepared from the kidney extracted from rats. With the total RNA used as a template, the rat EP4 receptor gene was cloned by RT-PCR and its translated region was integrated into the expression vector pShooter (Invitrogen) to prepare a rat EP4 receptor expressing vector (ratEP4-pShooter).
In the next step, rat EP4 receptor expressing cells for use in the reporter assay were prepared. COS-7 cells (derived from the kidney of Cercopithecus aethiops) were cultured in Dulbecco's Modified Eagle Medium (DMEM) (supplemented with 10% fetal bovine serum) in a 75-cm^2 cell culture flask. After the cells proliferated to a subconfluent state, the medium was removed and rinsed with phosphate buffered physiological saline (PBS). Trypsin-EDTA and a growth medium were used to recover the cells, which were then centrifuged. The supernatant was removed and the cells were suspended in DMEM. The cell suspension was seeded on a 96-well plate at a density of 2×10^4 cells/100 μL/well and cultured. The DMEM was mixed with Plus reagent, Lipofectamine 2000, the rat EP4 receptor expressing vector (ratEP4-pShooter) and a CRE-LUC reporter vector (CLONTECH) to prepare a transfection solution. Three hours after the seeding of the cells, 50 μL of the medium was removed and 50 μL/well of the transfection solution was added, followed by culture overnight. Negative control cells were prepared using pShooter in place of the receptor expressing vector. The cells were seeded on a 96-well plate for reporter assay and cultured.
The medium on the 96-well plate was removed and a test compound was added in an amount of 50 μL/well. After ca. 30-min culture, a PGE2 solution (2×10^−8 mol/L) was added in an amount of 50 μL/well (final concentration of PGE2: 1×10^−8 mol/L). As a PGE2-free control, there were provided wells to which a test medium had been added in an amount of 50 μL/well. About three hours later, the medium was removed and reporter assay was performed in accordance with the protocol accompanying the Steady-Glo Luciferase Assay System kit. Luminous intensity was measured with a microplate reader (Fusion-FPα, PerkinElmer) and EP4 receptor antagonistic activity (%) was determined by the following calculation formula: EP4 receptor antagonistic activity (%)=[1−(RLU(A,X)−RLU(0))/(RLU(PGE2)−RLU(0))]×100 RLU(A,X): Luminous intensity expressed in relative luminescence units (RLU) for the case where the test compound (A) X (mol/L) and PGE2 10^−8 mol/L were both added; RLU(PGE2): Luminous intensity for the case where only PGE2 10^−8 mol/L was added; RLU(0): Luminous intensity for the case where neither test compound nor PGE2 was added.
In addition, a dose-response curve was plotted from the EP4 receptor antagonistic activities at varying concentrations of each test compound and using the following approximation formula, the IC50 (the concentration of the test compound required to inhibit the PGE2 inducing activity by 50%) was calculated to determine the intensity of the compound's EP4 receptor antagonistic activity. The results are shown in Table 2: Y=Bottom+(Top−Bottom)/{1+10^(Log IC50−Log X)} Bottom: 0 Top: 100 X: Concentration of the test compound (mol/L) Y: EP4 receptor antagonistic activity (%)

[1] = tested on: Adjuvant Induced Arthritis in Rats; assay: Anti-inflammatory and analgesic effects on adjuvant induced arthritis in rats; assay type: in vivo, rat; design: Percent Effectiveness: scale not given: direction of the effect not stated beside the values; details: Lewis male rats, oral 0.3 mg/kg once a day, day 9 to day 17 after adjuvant; for Percent paw edema suppression: measured at day 18, means of 8˜10 cases; for Percent Effectiveness: pain threshold at day 18, 8˜10 cases
Procedure: Test for Evaluating Anti-Inflammatory and Analgesic Effects on Adjuvant Induced Arthritis in Rats
The animals were Lewis male rats (6-week old). An adjuvant solution (2 mg/mL) was administered intradermally to the footpad of the left hind leg of each animal at a dose of 0.1 mL to create an arthritis model. Paw volume was measured with a paw volume meter (PLETHYSMOMETER, Ugo Basile Model 7141). For evaluation of pain thresholds, a probe fitted to the sensor site of Pressure Application Measurement (PAM, Ugo Basile Model 38500) was used to turn the foot sole of a rat upward (dorsiflexion) until it gave an indication of pain or discomfort (vocalization) and the load being applied was measured. Eight days after the treatment with the adjuvant, the paw volume and pain threshold of each treated foot were measured and the animals were grouped for oral administration of each test compound (0.3 mg/kg) which was performed for nine days on a once-a-day schedule starting at day 9 and ending at day 17 after the treatment. At day 18 after the treatment, the paw volume and pain threshold of each […] foot were measured.
The anti-inflammatory effect of the test compound was confirmed using the percent paw edema suppression as an indicator. Percent paw edema suppression (%)=[(paw volume change in the control group−paw volume in each treatment group)/(paw volume change in the control group−paw volume change in the non-treatment group)]×100
As for the analgesic effect, the animals in the test compound group that had nociceptive thresholds greater than [(the mean nociceptive threshold of the control group)+2×standard deviation] were found “effective animals” and the percent effectiveness of each compound was calculated.

[2] = tested on: Carrageenin Induced Hyperalgesia in Rats; assay: Analgesic effect on carrageenin induced hyperalgesia in rats; assay type: in vivo; details: Rattus norvegicus, 2 h; SD male rats, oral 10 mg/5 mL/kg six hours after carrageenin, nociceptive threshold (Randall-Selitto) two hours after administration; 5˜7 cases; read-out: Percent Effectiveness
Procedure: Test for Evaluating Analgesic Effect on Carrageenin Induced Hyperalgesia in Rats
The animals were SD male rats (5-week old). Before treatment with carrageenin (or distilled water), the rats were measured for nociceptive thresholds in their right hind leg by the Randall-Selitto method and divided into a carrageenin treatment group and a non-treatment group to provide uniformity in nociceptive threshold. The carrageenin treatment group was given a 1 w/v % carrageenin solution and the non-treatment group given distilled water, each administered subcutaneously to the footpad of the right hind leg at a dose of 0.1 mL. Five hours after the treatment, the nociceptive thresholds were measured and the individuals with decreased thresholds were selected and grouped such that there was no inter-group difference in threshold. Six hours after the treatment, each test compound was orally administered at a dose of 10 mg/5 mL/kg. The control group was administered 0.5% methylcellulose. Two hours after the administration of the test compound (8 hours after the treatment), the nociceptive threshold was measured. The animals in the test compound group that had nociceptive thresholds greater than [(the mean nociceptive threshold of the control group)+2×standard deviation] were found “effective animals” and the percent effectiveness of each compound was calculated.

[3] = tested on: Carrageenin Induced Paw Edema in Rats; assay: Anti-inflammatory effect on carrageenin induced paw edema in rats; assay type: in vivo, rat; details: positive control, maximum efficacy at doses of 10˜30 mg/kg
Procedure: Test for Evaluating the Anti-Inflammatory Effect on Carrageenin Induced Paw Edema in Rats
The animals were Wistar male rats (7-week old). The paw volume of the right hind leg was measured with a paw volume meter (PLETHYSMOMETER, Ugo Basile Model 7141 or 7150). One hour after orally administering a test compound at a dose of 10 mg/5 mL/kg, a carrageenin treatment group was given a 1 w/v % carrageenin solution and a non-treatment group given distilled water, each administered subcutaneously to the footpad of the right hind leg at a dose of 0.1 mL. Four hours after the treatment with carrageenin (or distilled water), the paw volume was measured and the change in paw volume from the pre-treatment value was calculated. The anti-inflammatory effect of the test compound was confirmed using the percent paw edema suppression (see below) as an indicator. In the present experimental models, Cerecoxib (COX inhibitor already available on the market as an anti-inflammatory/analgesic agent) was used as a positive control.

T1 sequence (P43114 whole entry): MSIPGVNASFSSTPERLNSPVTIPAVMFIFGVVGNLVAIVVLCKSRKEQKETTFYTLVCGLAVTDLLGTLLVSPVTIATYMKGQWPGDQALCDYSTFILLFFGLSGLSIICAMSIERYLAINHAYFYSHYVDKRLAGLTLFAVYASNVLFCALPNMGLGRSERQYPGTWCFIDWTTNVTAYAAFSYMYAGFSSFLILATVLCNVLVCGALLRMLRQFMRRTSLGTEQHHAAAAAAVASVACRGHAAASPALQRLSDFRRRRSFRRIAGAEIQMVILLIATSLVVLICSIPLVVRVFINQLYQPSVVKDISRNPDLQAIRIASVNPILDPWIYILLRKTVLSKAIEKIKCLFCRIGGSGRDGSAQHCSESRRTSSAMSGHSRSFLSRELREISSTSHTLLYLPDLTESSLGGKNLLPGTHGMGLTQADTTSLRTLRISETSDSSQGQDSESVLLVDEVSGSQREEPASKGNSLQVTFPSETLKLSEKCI

COC(C)(C)C#Cc1nc(Cl)n(Cc2ccc(F)cc2)c1C(=O)NCc1ccc(C(=O)O)cc1 [Compound 56, 4-{[2-Chloro-1-(4-fluorobenzyl)-4-(3-methoxy-3-methyl-1-butyn-1-yl)-1H-imidazole-5-carboxamido]methyl}benzoic acid]
IC50 (rat EP4 receptor): 49.9 nM

COC(C)(C)C#Cc1nc(Cl)n(Cc2ccc(OC(F)(F)F)cc2)c1C(=O)N[C@@H](C)c1ccc(C(=O)O)cc1 [Compound 50]
IC50 (rat EP4 receptor): 1.1 nM

CC(C)(C#Cc1nc(Cl)n(CCOc2ccc(Cl)cc2)c1C(=O)NC[C@H]1CC[C@H](C(=O)O)CC1)CO [Compound 61, Trans-4-({2-chloro-1-[2-(4-chlorophenoxy)ethyl]-4-(4-hydroxy-3,3-dimethyl-1-butyn-1-yl)-1H-imidazole-5-carboxamido}methyl)cyclohexanecarboxylic acid]
IC50 (rat EP4 receptor): 26.6 nM

COC(C)(C)C#Cc1nc(Cl)n(Cc2ccc(C(F)(F)F)cc2)c1C(=O)NCc1ccc(C(=O)O)cc1 [Compound 41]
IC50 (rat EP4 receptor): 8.4 nM

Cc1ccc(Cn2c(Cl)nc(C#CC(C)(C)O)c2C(=O)NC[C@H]2CC[C@H](C(=O)O)CC2)cc1 [Compound 21, trans-4-{[2-Chloro-4-(3-hydroxy-3-methyl-1-butyn-1-yl)-1-(4-methylbenzyl)-1H-imidazole-5-carboxamido]methyl}cyclohexanecarboxylic acid]
IC50 (rat EP4 receptor): 26.4 nM
Percent paw edema suppression [1]: 53%
Percent Effectiveness [1]: 20%

COC(C)(C)C#Cc1nc(Cl)n(CCOc2ccc(Cl)cc2)c1C(=O)NCc1ccc(C(=O)O)cc1 [Compound 45]
IC50 (rat EP4 receptor): 5.1 nM
responders at 10 mg/kg [2]: 50%

COC(C)(C)C#Cc1nc(Cl)n(Cc2ccc(OC(F)F)cc2)c1C(=O)NCC1CCC(C(=O)O)CC1 (centres unmarked) [Compound 51]
IC50 (rat EP4 receptor): 7.9 nM

COC(C)(C)C#Cc1nc(Cl)n(Cc2cccc(OC(F)F)c2)c1C(=O)NCc1ccc(C(=O)O)cc1 [Compound 54]
IC50 (rat EP4 receptor): 16.1 nM

Cc1ccc(Cn2c(Cl)nc(C#CC(C)(C)O)c2C(=O)NC2(c3ccc(C(=O)O)cc3)CC2)cc1 [Compound 68]
IC50 (rat EP4 receptor): 6.1 nM

CC(C)(O)C#Cc1nc(Cl)n(CCOc2ccc(Cl)cc2)c1C(=O)NCc1ccc(C(=O)O)cc1 [Compound 44]
IC50 (rat EP4 receptor): 17.5 nM
responders at 10 mg/kg [2]: 50%

CC(C)(O)C#Cc1nc(C2CC2)n(Cc2ccc(C(F)(F)F)cc2)c1C(=O)NCc1ccc(C(=O)O)cc1 [Compound 20, 4-({2-cyclopropyl-4-(3-hydroxy-3-methyl-1-butyn-1-yl)-1-[4-(trifluoromethyl)benzyl]-1H-imidazole-5-carboxamido}methyl)benzoic acid]
IC50 (rat EP4 receptor): 64.6 nM

COC(C)(C)C#Cc1nc(Cl)n(Cc2ccc(OC(F)F)cc2)c1C(=O)NCc1ccc(C(=O)O)cc1 [Compound 52]
IC50 (rat EP4 receptor): 7.9 nM

COC(C)(C)C#Cc1nc(Cl)n(Cc2ccc(C)cc2)c1C(=O)NC1(c2ccc(C(=O)O)cc2)CC1 [Compound 67, 4-(1-{2-Chloro-4-(3-methoxy-3-methyl-1-butyn-1-yl)-1-(4-methylbenzyl)-1H-imidazole-5-carboxamido}cyclopropyl)benzoic acid]
IC50 (rat EP4 receptor): 2.1 nM
responders at 10 mg/kg [2]: 100%

CC(C)(O)C#Cc1nc(Cl)n(Cc2ccc(C(F)(F)F)cc2)c1C(=O)NC1(c2ccc(C(=O)O)cc2)CC1 [Compound 4]
IC50 (rat EP4 receptor): 3 nM

O=C(NCC1CCC(C(=O)O)CC1)c1c(C#CC2(O)CCCC2)nc(Cl)n1Cc1ccc(C(F)(F)F)cc1 (centres unmarked) [Compound 16]
IC50 (rat EP4 receptor): 7.3 nM

CC(C)(O)C#Cc1nc(Cl)n(Cc2ccc(C(F)(F)F)cc2)c1C(=O)NC[C@H]1CC[C@H](C(=O)O)CC1 [Compound 1, trans-4-({2-Chloro-4-(3-hydroxy-3-methyl-1-butyn-1-yl)-1-[4-(trifluoromethyl)benzyl]-1H-imidazole-5-carboxamido}methyl)cyclohexanecarboxylic acid]
IC50 (rat EP4 receptor): 23.8 nM
Percent paw edema suppression [1]: 54%
Percent Effectiveness [1]: 30%

Cc1ccc(-c2cc(C(F)(F)F)nn2-c2ccc(S(N)(=O)=O)cc2)cc1 [Cerecoxib, reference compound]
Percent paw edema suppression at the maximum efficacy [3]: 32˜37%

COC(C)(C)C#Cc1nc(C(F)F)n(CCOc2ccc(Cl)cc2)c1C(=O)NCc1ccc(C(=O)O)cc1 [Compound 64]
IC50 (rat EP4 receptor): 26.1 nM

CC(C)(O)C#Cc1nc(Cl)n(Cc2ccc(C(F)(F)F)cc2)c1C(=O)NCc1ccc(C(=O)O)cc1 [Compound 2, 4-({2-Chloro-4-(3-hydroxy-3-methyl-1-butyn-1-yl)-1-[4-(trifluoromethyl)benzyl]-1H-imidazole-5-carboxamido}methyl)benzoic acid]
IC50 (rat EP4 receptor): 14.1 nM
Percent paw edema suppression [1]: 21%
Percent Effectiveness [1]: 38%

COC(C)(C)C#Cc1nc(Cl)n(Cc2ccc(C(F)F)cc2)c1C(=O)NC[C@H]1CC[C@H](C(=O)O)CC1 [Compound 60, trans-4-({2-Chloro-1-[4-(difluoromethyl)benzyl]-4-(3-methoxy-3-methyl-1-butyn-1-yl)-1H-imidazole-5-carboxamido}methyl)cyclohexanecarboxylic acid]
IC50 (rat EP4 receptor): 10.2 nM
